For orientation: Ki means a measure of affinity in units of concentration, obtained from inhibition or displacement.

The test in a line: Inhibition of wild type recombinant Mycobacterium tuberculosis PTPB using p-nitrophenyl phosphate as substrate preincubated for 10 mins followed by substrate addition measured for 10 mins by UV-VIS spectrophotometer.

The structures appear in SMILES notation.

As to `CC(C)=CCc1c(O)ccc(C(=O)[C@@H]2[C@@H](c3ccc(O)cc3O)CC(C)=C[C@H]2c2c(O)cc(/C=C/c3ccc(O)cc3O)cc2O)c1O`, the Ki worked out at 1600 nM.

Values taken from ChEMBL document CHEMBL4000157, “Total Synthesis of (±)-Kuwanol E” (J Nat Prod, 2016).
